Source: paper PMC11620517, “Novel hydrazone compounds with broad-spectrum antiplasmodial activity and synergistic interactions with antimalarial drugs” (Antimicrobial Agents and Chemotherapy, 2024)
Values joined by “and” are separate entries in the source; they are usually repeats but may differ in a detail not shown here. Equal entries are not always repeated. Where two headings read alike, the source gives them in different places.

Assays:
human GST = molecular target: T1, human GST (Homo sapiens, UniProt P08263); test: GST inhibition assay (CDNB); assay type: biochemical; settings: 6-point 1–50 µM
T1 construct: The open reading frames encoding PfGST, PbGST, and hGST were gene-synthesized; TEV cleavage site (C); Avitag (C); purchased InterRayBio, LLC; host or cells: E. coli BL21 (DE3)
T1 sequence (P08263 1-222): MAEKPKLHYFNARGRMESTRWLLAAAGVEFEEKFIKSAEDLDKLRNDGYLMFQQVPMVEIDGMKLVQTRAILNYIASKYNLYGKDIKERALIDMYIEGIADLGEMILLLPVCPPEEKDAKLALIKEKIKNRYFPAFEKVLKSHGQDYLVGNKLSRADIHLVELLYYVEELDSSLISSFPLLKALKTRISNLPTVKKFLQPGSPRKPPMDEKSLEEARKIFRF
Procedure: (§1) Enzymatic activities of recombinant GSTs were determined spectrophotometrically using the chromogenic substrate 1-chloro-2,4-dinitrobenzene (CDNB). Recombinant GST (0.35 mg/mL) was mixed with 1 mM CDNB in 100 mM HEPES. Stock solutions (10 mM) of the CB compounds and hemin were prepared in 100% dimethyl sulfoxide (DMSO) and then diluted at 0.5% DMSO ([14]). Each inhibitor has six concentrations ranging from 1 to 50 µM. The reaction was initiated with 1 mM glutathione (GSH) after 15 minutes. Absorbance change at 340 nm was measured for 1 hour. The slope was converted to micromole per minute using Beer’s equation and the extinction coefficient for the product S-(2,4-dinitrophenyl)glutathione (ε340 nm = 9.6 mM^–1 cm^–1) ([14]). The assay was validated using human placenta GST (#G8642) as a positive control.

[1] = molecular target: T2, recombinant P. falciparum GST (Plasmodium falciparum, UniProt Q8ILQ7); test: GST inhibition assay (CDNB); assay type: biochemical; settings: 6-point 1–50 µM
T2 construct: The open reading frames encoding PfGST, PbGST, and hGST were gene-synthesized; TEV cleavage site (C); Avitag (C); purchased InterRayBio, LLC; host or cells: E. coli BL21 (DE3)
T2 sequence (Q8ILQ7 1-211): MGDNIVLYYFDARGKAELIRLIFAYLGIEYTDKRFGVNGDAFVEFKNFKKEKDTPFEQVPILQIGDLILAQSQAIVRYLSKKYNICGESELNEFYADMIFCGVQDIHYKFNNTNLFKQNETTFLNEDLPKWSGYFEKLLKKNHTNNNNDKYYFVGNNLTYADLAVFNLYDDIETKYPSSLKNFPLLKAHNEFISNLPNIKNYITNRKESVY
Procedure: as §1

[2] = system: P. cynomolgi hypnozoites and hepatic schizonts; test: P. cynomolgi liver-stage inhibition assay; assay type: cell-based, Plasmodium cynomolgi; settings: for IC50: Plasmodium cynomolgi, prophylactic drug treatment mode
Procedure: Primary primate hepatocytes were seeded in 384-well plates and used within 2–4 days ([56]). P. cynomolgi B strain parasites were inoculated and developed into hypnozoites and schizonts. CB compounds were tested in 8-point, threefold serial dilutions (100 µM to […]) for both prophylactic (4 days starting with sporozoite addition) and radical cure (4 days starting day 4 post-inoculation) modalities ([56][–][60]). The Operetta CLS imaging system and Harmony Software 4.9 (Perkin Elmer, Waltham, MA, USA) analyzed the plates, and the percentage of inhibition (PI) was calculated in Python using equation (1), where parasitic quantities (hypnozoite and schizont counts) were normalized to the negative control ([57]). Each plate included negative (DMSO) and positive (KDU691, maduramicin, tafenoquine) controls ([58]). IC50 values were determined using an 8-point, threefold dilution format and a Python-adapted grid algorithm for fitting PI to a four-parameter logistic function ([61]).
PI = 100 ∗(1−(xy/Meanneg))

[3] = system: P. falciparum oocyst formation in Anopheles stephensi mosquitoes; test: P. falciparum oocyst inhibition assay (SMFA); assay type: in vivo, Plasmodium falciparum; settings: for Prevalence: infection prevalence in mosquitoes; for Median (oocysts) / Median I % / Prevalence % / Prevalence I %: pooled from two representative experiments
Procedure: As previously described, P. falciparum infections were performed using SMFA with NF54 gametocyte cultures diluted to 0.3% stage V gametocytemia ([62]). Infected blood (O+ human 45% hematocrit in serum) was offered to mosquitoes for 30 minutes, and engorged mosquitoes were maintained on a 10% corn syrup solution supplemented by four concentrations of CB compounds (1, 2.5, 5, and 10 µM) at […] ([63]), with DMSO serving as a control. Eight days post-infection, mosquito midguts were dissected and stained with 0.2% mercurochrome for 30 minutes, and oocysts were quantified under a light microscope ([63]).

in vitro = settings: human, HepG2 cells
Procedure: HepG2 cell viability was assessed using the Cell Proliferation kit with trypan blue exclusion. […] After incubation, a 1.5-mg/mL Cell Proliferation kit solution diluted in complete MEM medium was added to each well, followed by 1-hour dark incubation at 25°C. After aspiration of media and inhibitors, the plates were dried in a hood for 15 minutes, and acidified isopropyl alcohol was added to dissolve formazan dye crystals. The plates were then rotated for 15–30 minutes, and absorbance was determined using a Perkin Elmer Ensight plate reader.

COc1cccc(/C=N/NC(=O)c2nc(-c3ccccc3)cc(-c3ccccc3)n2)c1O [CB-41]
GST inhibition (human GST): did not inhibit
GST inhibition [1]: did not inhibit
IC50 ([2]; read-out: Hypnozoite IC50): 8.7 µM
IC50 ([2]; read-out: Schizont IC50): 8.4 µM
IC50 ([2]; read-out: Total parasite IC50): 8.6 µM
antiplasmodial activity on liver stages ([2]; radical cure mode): did not show antiplasmodial activity
Median oocyst # ([3]; 1 μM compound): 45
Mean oocyst # excluding zeros (Range) ([3]; 1 μM compound, P. falciparum midgut infection in An. stephensi mosquitoes): 53 (0-136)
Prevalence ([3]; 1 μM compound): 85
inhibition at 1 µM ([3]; 1 μM compound, vs DMSO control, read-out: % inhibition (prevalence)): 14%
Median (oocysts) ([3]; 1 µM): 45
Median I % ([3]; 1 µM): 18%
Prevalence % ([3]; 1 µM): 85%
Prevalence I % ([3]; 1 µM): 14%
Mean oocyst # excluding zeros (Range) ([3]; 1 μM, single experiments): 53 (0-136) and 77 (0-156)
Median oocyst # ([3]; 1 μM, single experiments): 45 and 63
Median oocyst # ([3]; 2.5 μM compound): 44
Mean oocyst # excluding zeros (Range) ([3]; 2.5 μM compound, P. falciparum midgut infection in An. stephensi mosquitoes): 51 (0-123)
Prevalence ([3]; 2.5 μM compound): 83
inhibition at 2.5 µM ([3]; 2.5 μM compound, oocyst number vs DMSO control, read-out: % inhibition (mean)): 2%
inhibition at 2.5 µM ([3]; 2.5 μM compound, oocyst number vs DMSO control, read-out: % inhibition (median)): 19%
inhibition at 2.5 µM ([3]; 2.5 μM compound, vs DMSO control, read-out: % inhibition (prevalence)): 17%
Median (oocysts) ([3]; 2.5 µM): 44
Median I % ([3]; 2.5 µM): 19%
Prevalence % ([3]; 2.5 µM): 83%
Prevalence I % ([3]; 2.5 µM): 17%
% inhibition (mean) ([3]; 2.5 μM, single experiments): 9%
% inhibition (median) ([3]; 2.5 μM, single experiments): 30%
Mean oocyst # excluding zeros (Range) ([3]; 2.5 μM, single experiments): 47 (0-92) and 55 (0-123) and 64 (0-156)
Median oocyst # ([3]; 2.5 μM, single experiments): 40 and 48
inhibition at 2.5 µM ([3]; 2.5 μM, single experiments, read-out: % inhibition (mean)): 10%
inhibition at 2.5 µM ([3]; 2.5 μM, single experiments, read-out: % inhibition (median)): 26%
Median oocyst # ([3]; 5 μM compound): 32
Mean oocyst # excluding zeros (Range) ([3]; 5 μM compound, P. falciparum midgut infection in An. stephensi mosquitoes): 49 (0-108)
Prevalence ([3]; 5 μM compound): 71
inhibition at 5 µM ([3]; 5 μM compound, oocyst number vs DMSO control, read-out: % inhibition (mean)): 6%
inhibition at 5 µM ([3]; 5 μM compound, oocyst number vs DMSO control, read-out: % inhibition (median)): 41%
inhibition at 5 µM ([3]; 5 μM compound, vs DMSO control, read-out: % inhibition (prevalence)): 28%
Median (oocysts) ([3]; 5 µM): 32
Median I % ([3]; 5 µM): 41%
Prevalence % ([3]; 5 µM): 71%
Prevalence I % ([3]; 5 µM): 28%
Mean oocyst # excluding zeros (Range) ([3]; 5 μM, single experiments): 45 (0-108) and 52 (0-107) and 70 (0-144)
inhibition at 5 µM ([3]; 5 μM, single experiments, read-out: % inhibition (mean)): 15%
Median oocyst # ([3]; 10 μM compound): 35
Mean oocyst # excluding zeros (Range) ([3]; 10 μM compound, P. falciparum midgut infection in An. stephensi mosquitoes): 44 (0-128)
Prevalence ([3]; 10 μM compound): 82
inhibition at 10 µM ([3]; 10 μM compound, oocyst number vs DMSO control, read-out: % inhibition (mean)): 15%
inhibition at 10 µM ([3]; 10 μM compound, vs DMSO control, read-out: % inhibition (prevalence)): 18%
Median (oocysts) ([3]; 10 µM): 35
Median I % ([3]; 10 µM): 36%
Prevalence % ([3]; 10 µM): 82%
Prevalence I % ([3]; 10 µM): 18%
% inhibition (prevalence) ([3]; 10 μM, single experiments): 45%
Mean oocyst # excluding zeros (Range) ([3]; 10 μM, single experiments): 37 (0-102) and 50 (0-128) and 59 (0-146)
Median oocyst # ([3]; 10 μM, single experiments): 27 and 44
inhibition at 10 µM ([3]; 10 μM, single experiments, read-out: % inhibition (prevalence)): 46%
median inhibition percentage ([3]; 1 to 10 µM): below 50%
prevalence inhibition percentage ([3]; 1 to 10 µM): below 50%
oocyst formation inhibition ([3]; 1 to 10 µM, midguts dissected 8 days after feeding): inhibited midgut oocyst formation in a dose-dependent manner
IC50 at 48 h (in vitro): > 20 µM
